Key:
pBR322 plasmid = assay: Cleavage of supercoiled plasmid DNA; details: 5 μM, 20 h, 37 °C
Method: To assess the potential DNA‐cleaving activity of 4 a plasmid cleavage assay was performed. This method makes use of the different mobilities that plasmids display during electrophoretic separation processes in an agarose gel. An intact supercoiled plasmid has the highest mobility due to its compactness, open circular plasmids (ocDNA), e. g. plasmids with a single strand break, present a lower mobility due to increased friction of this less compact DNA construct. Commercially available DNA plasmids usually present ratios of 95 % supercoiled and 5 % ocDNA. Upon treatment with DNA‐damaging agents this ratio will be shifted towards a higher amount of ocDNA due to single strand breaks, or even linearized DNA in case double strand breaks are induced. […]
Cleavage of supercoiled plasmid DNA: For this assay, 0.3 μg pBR322 plasmid (Thermo Fisher) were incubated with either 0.1 % DMF or 5 μM 4 with or without 2 mM glutathione (GSH) in a 50 mM sodium phosphate buffer at pH 7.5 for 20 h in a 37 °C water bath. Afterwards, the samples were separated on a 1 % agarose (Geneon) gel at 80 V (5 V/cm) for 2 h, stained with GelRed (Biotium) and the image captured and bands quantified using ImageLab (Biorad). The resulting data was analyzed and visualized with Prism 7 (GraphPad).

SISO cell line = assay: MTT viability with ferrostatin-1 co-treatment (ferroptosis probe); assay type: cell-based, human; details: ferrostatin-1 1.5-6.0 μM, MTT 48 h
From the text: Another form of programmed cell death is ferroptosis, which is iron dependent and activated by lipid peroxidation (LPO) in the cell membrane.14 Unlike apoptosis, PARP cleavage is not observed in this cell death mechanism. GPx4, a membrane bound isoenzyme of GPx1, is believed to be a key protector of cells from ferroptosis by destroying lipid peroxides in the cell membrane.
MTT cell viability assay: For the detection of the inhibition of the viability of cells by the pentathiepins, the MTT‐viability assay was used.37 Briefly, 10 000 and 20 000 cells for the suspension cell lines HL‐60 and Gumbus, respectively, were seeded out in 50 μL medium per well and immediately exposed to the compounds. For the adherent cell lines SISO and HAP‐1, 3000 and 5000 cells, respectively, were seeded out in 96‐well plates and allowed to attach for 24 h. Cells were exposed to nine serial dilutions of compound, added to the medium from 1000‐fold concentrated stock solution in DMF. For the controls, cells were exposed to 0.1 % DMF alone. After 48 h incubation, 20 μL of the MTT stock solution (2.5 mg/mL in PBS) were added to each well to give a final concentration of 1.0 mM. […] Optical density was measured with a SpectraMax Plus 383 microtiter plate read at λ=570 nm (Molecular Devices, USA). […]

SISO cells = assay: Fluorescence microscopy for lipid peroxidation (BODIPY 581/591); assay type: cell-based, human; details: 25 μM, 24 h
Method: In another set of experiments, LPO was visualized by fluorescence microscopy with a dye for lipid peroxides, BODIPY 581/591. […] Together, our results point to apoptosis and not ferroptosis as the mechanism of cell death induced by 4.
Fluorescence microscopy for the detection of lipid peroxidation: SISO cells (250 000 cells) were seeded out in 6‐well plates with an inserted coverslip. Cells were allow to attach for 24 h and then exposed to 25 μM 4 or 100 μM tert‐butyl‐hydroperoxide as a positive control. After 24 h coverslips were washed with PBS and stained with 1 μM BODIPY 581/591 in culture medium for 30 min. Cells on the coverslips were then mounted and examined with a Leica DMi8 fluorescence microscope at λ ex/em=460–500/512–542 nm for the oxidized BODIPY 581/591 and λ ex/em=540–581/592–668 for the reduced form.

[1] = system: SISO human cervix cancer cell line; assay: Crystal violet proliferation assay; assay type: cell-based; details: Homo sapiens, 37 °C, 96 h, n>4, read-out: Inhibition of cell viability GI50 (CI 95 %)
Method: GI50 values for 50 % growth inhibition were all in a low micro molar range (Table 1). […] The indole−pentathiepins gave lower GI50 values than the pyrrolo[1,2‐a]quinoxaline derivatives. […] There was also a trend showing that an electron rich substituent in position R^2 increased the antiproliferative effect in SISO cells.
Crystal violet proliferation assay: To measure cell growth inhibition, the crystal violet assay was carried out as previously described.37 Adherent cell lines were seeded out in a 96‐well plate (1000 cells per 200 μL culture medium) and allowed to attach for 24 h. Cells were exposed to nine serial dilutions of compound, added to the medium from 1000‐fold concentrated stock solutions in DMF. For the controls, cells were exposed to 0.1 % DMF alone. After addition of compounds, plates for the detection of the starting point of the proliferation at incubation time zero (t 0) were stopped with glutaraldehyde (see below), washed with Dulbecco's buffer (containing KCl 0.2 g/L, MgSO4 ⋅ 7 H2O 0.1 g/L, Na2HPO4 ⋅ >7 H2O 1.55 g/L, KH2HPO4 0.2 g/L and NaCl 8 g/L in water) and stored at 4 °C until the staining procedure. Treated cells were incubated for 96 h in the incubator, the medium was removed and replaced with 100 μL of 1 % glutaraldehyde in Dulbecco's buffer for 20 min. After washing twice with 150 μL of Dulbecco's buffer, the buffer was removed and replaced with 100 μL of a 0.02 % crystal violet solution dissolved in water for 30 min and subsequently washed in tap water for 15 min. Water was removed and replaced with 100 μL of ethanol (70 % in water) followed by shaking on a 96‐well shaker (MS3 digital, IKA‐Werke, Germany) for 2 h. Optical density was measured with a SpectraMax Plus 383 microtiter plate reader at λ=570 nm (Molecular Devices, USA). The optical density of t 0 plates at the time of treatment were subtracted from optical densities of plates with treated cells after 96 h (T), and the growth inhibition relative to untreated, control cells (C) as described.22 Growth inhibition concentrations at 50 % (GI50) were calculated by determining the inflection point of the sigmoidal log dose‐growth inhibition (%T/C) curves with the GraphPad Prism 6.0 software.

GI50 [1]: 8.9 µM
SMILES: CCOc1c2c(c3cnc4cc(C)c(C)cc4n13)SSSSS2 [Compound 4]
fraction of damaged plasmid (pBR322 plasmid; with 2 mM GSH): 19%
fraction of damaged plasmid (pBR322 plasmid; without additional thiol): 7%
change of IC50 on co-treatment with ferrostatin-1 (SISO cell line): No significant changes in the IC50 value
lipid peroxidation (LPO) (SISO cells): no indication for LPO
